Key:
[1] = system: rats of male sex, of the Sprague-Dawley strain; assay: Anti-inflammatory activity in the kaolin test; assay type: in vivo; details: 10% suspension of kaolin injected, diameter of the tibio-tarsal articulation
Description: a) Anti-inflammatory activity in the kaolin test. For each compound 16 rats of male sex, of the Sprague-Dawley strain and of 200-250 g of body weight, were used. The rats were divided into four groups each comprising four rats. All.-the animals were injected with a 10% suspension of kaolin. The first group was used as the control, whereas the other three groups were administered with doses respectively of 50,75 and 100 mg/kg. The measurements of the diamzrers of the articulation were effected one hour after the kaolin injection and then every 24 hours.
The inoculation of kaolin caused an increase of the tibio-tarsal articulation which has been partially limited by the treatment with the test compound.

[2] = system: male rats, of the Sprague-Dawley strain; assay: Anti-inflammatory activity in the egg white test; assay type: in vivo; details: orally, 0.1 ml of egg white in the rear paw, measured 3 and 4 hours later
Description: For each compound 16 male rats, of the Sprague-Dawley strain and weighing 300 g, were used. The animals were divided in four groups each comprising four rats. The first group served as a control, whereas the other three gropus were orally administered, with a 30 minute interval, with two doses of 50,75 and 100 mg/kg of the test compound. The last administration was immediately followed by the inoculation of 0.1 ml of egg white in the rear paw of all the animals, including the controls. The measurements of the diameters of the articulations were effected 3 and 4 hours later.

p-isobutylphenylpropionoylthio-N-acetylcysteine
Anti-inflammatory activity % ([1]; dose 75 mg/kg): 12%
Anti-inflammatory activity % ([1]; dose 100 mg/kg): 26%
Anti-inflammatory activity % ([2]; two doses of 75 mg/kg with a 30 minute interval): 12%
Anti-inflammatory activity % ([2]; two doses of 100 mg/kg with a 30 minute interval): 20%

Source: patent EP0052910A1, “Derivative of N-acetilcysteine having therapeutical activity, process for its preparation and related pharmaceutical compositions” (Real S.a.s. di Alberto Reiner & C., priority 1980, dated 1982)
